Reference: the supplement of paper PMC10326909

Experiment: ESI positive response factor (isotope-corrected peak area per molar concentration) in SFC/ESI/HRMS (area units per M); higher = higher ionization efficiency
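Further: standards in acetonitrile/water run in triplicate on a zwitterionic HILIC column, CO2–methanol gradient containing 20 mmol/L ammonium acetate, postcolumn makeup flow, Orbitrap full-scan detection.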

| ESI positive response factor (0.035 µM) | ESI positive response factor (0.0875 µM) | ESI positive response factor (0.175 µM) | ESI positive response factor (0.35 µM) | ESI positive response factor (0.244 µM) | ESI positive response factor (0.122 µM) | SMILES | ESI positive response factor (0.061 µM) | other results |
| --- | --- | --- | --- | --- | --- | --- | --- | --- |
| – | 2.45e+15 | 5.22e+15 | – | – | – | CN(C)N/N=C1/N=CN=C1C(N)=O [Dacarbazine] | – | – |
| – | – | – | 3.71e+15 | – | – | O=C(O)Cc1ccccc1Nc1c(Cl)cccc1Cl [Diclofenac] | – | ESI positive response factor (0.875 µM): 5.3e+15; ESI positive response factor (1.75 µM): 5.19e+15 |
| 7.64e+16 | 6.02e+16 | 5.72e+16 | – | – | – | COC(=O)CCCCCCCCC(=O)OC [Dimethylsebacate] | – | ESI positive response factor (0.0175 µM): 7.67e+16 |
| 8.5e+15 | 9.06e+15 | 1.22e+16 | 1.22e+16 | – | – | CCN[C@H]1C[C@H](C)S(=O)(=O)c2sc(S(N)(=O)=O)cc21 [Dorzolamide] | – | ESI positive response factor (0.875 µM): 1.24e+16; ESI positive response factor (1.75 µM): 1.24e+16 |
| 3.29e+17 | 3.2e+17 | 3.2e+17 | – | – | – | CCOC(=O)[C@H](CCc1ccccc1)N[C@@H](C)C(=O)N1CCC[C@H]1C(=O)O [Enalapril] | – | ESI positive response factor (0.0175 µM): 2.87e+17 |
| 9.95e+16 | 9.42e+16 | – | – | – | – | CCOC(=O)CN1CCCC1=O [Ethyl 2-oxo-1-pyrrolidineacetate] | – | ESI positive response factor (0.0175 µM): 9.45e+16 |
| – | 2.45e+16 | 3.25e+16 | 3.73e+16 | – | – | NC(N)=Nc1nc(CSCCC(N)=NS(N)(=O)=O)cs1 [Famotidin] | – | ESI positive response factor (0.875 µM): 3.76e+16; ESI positive response factor (1.75 µM): 3.72e+16 |
| – | – | – | – | 1.53e+16 | 1.45e+16 | COc1ccc2c(c1)c(CC(=O)O)c(C)n2C(=O)c1ccc(Cl)cc1 [Indomethacin] | – | ESI positive response factor (0.61 µM): 1.99e+16 |
| – | – | – | – | 3.07e+15 | 2.76e+15 | O=C(O)[C@@H]1C[C@@H](O)CN1 [L-Hydroxyprolin] | – | ESI positive response factor (0.61 µM): 2.85e+15 |
| – | – | – | – | 1.44e+16 | 1.51e+16 | N[C@@H](Cc1ccccc1)C(=O)O [L-Phenylalanin] | – | ESI positive response factor (0.61 µM): 1.27e+16 |
| – | – | – | – | 3.05e+15 | 2.67e+15 | N[C@@H](Cc1ccc(O)cc1)C(=O)O [L-Tyrosine] | 2.58e+15 | – |
| – | – | – | – | 4.65e+14 | – | Nc1cccc2c1CN(C1CCC(=O)NC1=O)C2=O (configuration not stated) [Lenalidomid] | – | ESI positive response factor (0.61 µM): 5.58e+14; ESI positive response factor (1.22 µM): 7.56e+14 |
| – | – | – | – | 1.58e+16 | 1.43e+16 | NCCCC[C@H](N[C@@H](CCc1ccccc1)C(=O)O)C(=O)N1CCC[C@H]1C(=O)O [Lisinopril] | 1.89e+16 | ESI positive response factor (0.0122 µM): 7.7e+15; ESI positive response factor (0.0244 µM): 1.4e+16 |
| – | – | – | – | 1.56e+16 | 1.43e+16 | CC(=O)C1=C(C)C2CC3(C1)C(C)CCC3C2(C)C (configuration not stated) [Methyl cedryl ketone] | – | ESI positive response factor (0.61 µM): 1.43e+16; ESI positive response factor (1.22 µM): 1.44e+16 |
| 5.69e+15 | 1e+16 | 1.1e+16 | 1.34e+16 | – | – | OCCN1C[C@H](O)[C@@H](O)[C@H](O)[C@H]1CO [Miglitol] | – | ESI positive response factor (0.875 µM): 1.42e+16; ESI positive response factor (1.75 µM): 1.46e+16 |
| – | – | – | – | 1.72e+17 | 1.69e+17 | N=c1nc(N2CCCCC2)cc(N)n1O [Minoxidil] | 1.77e+17 | ESI positive response factor (0.0122 µM): 1.59e+17; ESI positive response factor (0.0244 µM): 1.78e+17 |
| – | – | – | – | 1.97e+17 | 1.92e+17 | N=C(N=C(N)N)N1CCOCC1 [Moroxydine] | 1.94e+17 | ESI positive response factor (0.0122 µM): 1.51e+17; ESI positive response factor (0.0244 µM): 1.7e+17 |
| 4.39e+16 | 4.04e+16 | 3.9e+16 | 3.89e+16 | – | – | CC(=O)NCCNC(C)=O [N,N'-Ethylenebisacetamide] | – | – |
| – | – | – | 8.93e+15 | – | – | CC(=O)NCCCCC(N)C(=O)O [N?-Acetyl-L-lysine] | – | ESI positive response factor (0.875 µM): 9.29e+15; ESI positive response factor (1.75 µM): 9.24e+15 |
| 7.47e+15 | 7.04e+15 | 6.98e+15 | 6.96e+15 | – | – | COc1ccc2cc(C(C)C(=O)O)ccc2c1 (configuration not stated) [Naproxen] | – | – |

Further lines, the molecule ahead of its results:

| SMILES | ESI positive response factor (0.035 µM) | ESI positive response factor (0.0875 µM) | ESI positive response factor (0.175 µM) | ESI positive response factor (0.35 µM) | ESI positive response factor (0.244 µM) | ESI positive response factor (0.122 µM) | ESI positive response factor (0.061 µM) | other results |
| --- | --- | --- | --- | --- | --- | --- | --- | --- |
| CN=C(NC#N)NCCSCc1nc[nH]c1C [Cimetidine] | 9.26e+16 | 8.81e+16 | 8.23e+16 | 9.32e+16 | – | – | – | ESI positive response factor (0.0175 µM): 6.5e+16; ESI positive response factor (0.875 µM): 8.86e+16 |
| Nc1ccnc(=O)[nH]1 [Cytosine] | – | – | – | 2.81e+15 | – | – | – | ESI positive response factor (0.875 µM): 3.21e+15; ESI positive response factor (1.75 µM): 3.05e+15 |
| CCN(CC)C(=O)c1cccc(C)c1 [DEET] | – | – | – | 4.74e+17 | – | – | – | ESI positive response factor (0.875 µM): 4.86e+17 |
| Nc1ccc(S(=O)(=O)c2ccc(N)cc2)cc1 [Dapson] | 8.29e+16 | 8.16e+16 | – | – | – | – | – | ESI positive response factor (0.0175 µM): 6.07e+16 |
| CCOP(=S)(OCC)Oc1cc(C)nc(C(C)C)n1 [Diazinon] | 5.67e+16 | 3.71e+16 | 5.13e+16 | – | – | – | – | ESI positive response factor (0.0175 µM): 3.13e+16 |
| N#CN=C(N)N [Dicyandiamide] | 3.07e+15 | 4.26e+15 | 3.9e+15 | 4.96e+15 | – | – | – | ESI positive response factor (0.875 µM): 6.05e+15; ESI positive response factor (1.75 µM): 6.06e+15 |
| CNC(=O)CSP(=S)(OC)OC [Dimethoate] | 5.3e+16 | 5.84e+16 | 5.04e+16 | 5.56e+16 | – | – | – | ESI positive response factor (0.0175 µM): 5.46e+16 |
| CN(C)C(=O)C(c1ccccc1)c1ccccc1 [Diphenamid] | 1.02e+17 | 1.09e+17 | 9.79e+16 | 1.13e+17 | – | – | – | ESI positive response factor (0.0175 µM): 1.12e+17 |
| CN(C)CCOC(c1ccccc1)c1ccccc1 [Diphenhydramine] | 2.23e+17 | 2.16e+17 | 2.35e+17 | 2.4e+17 | – | – | – | ESI positive response factor (0.0175 µM): 1.59e+17; ESI positive response factor (0.875 µM): 2.25e+17 |
| CCOC(=O)NCCOc1ccc(Oc2ccccc2)cc1 [Fenoxycarb] | 5.89e+17 | 5.34e+17 | – | – | – | – | – | ESI positive response factor (0.0175 µM): 5.41e+17 |
| CNCCC(Oc1ccc(C(F)(F)F)cc1)c1ccccc1 (configuration not stated) [Fluoxetine] | 1.16e+17 | 1.1e+17 | 1.05e+17 | – | – | – | – | ESI positive response factor (0.0175 µM): 9.5e+16 |
| NCC1(CC(=O)O)CCCCC1 [Gabapentin] | – | – | – | – | 2.98e+16 | – | – | ESI positive response factor (0.61 µM): 2.83e+16; ESI positive response factor (1.22 µM): 3.28e+16 |
| NC(=O)N=C(N)N [Guanylurea] | – | – | – | – | 2.7e+15 | – | – | ESI positive response factor (0.61 µM): 2.53e+15; ESI positive response factor (1.22 µM): 2.64e+15 |
| CC(Oc1ccc(Oc2ncc(C(F)(F)F)cc2Cl)cc1)C(=O)O (configuration not stated) [Haloxyfop] | – | – | – | – | 5.62e+15 | – | – | ESI positive response factor (0.61 µM): 5.23e+15; ESI positive response factor (1.22 µM): 4.69e+15 |
| COCC(=O)Nc1c(I)c(C(=O)NCC(O)CO)c(I)c(C(=O)N(C)CC(O)CO)c1I (configuration not stated) [Iopromide] | – | – | – | – | – | – | – | ESI positive response factor (0.61 µM): 1.19e+15; ESI positive response factor (1.22 µM): 1.27e+15 |
| CON(C)C(=O)Nc1ccc(Cl)c(Cl)c1 [Linuron] | – | – | – | – | 4.46e+16 | 4.05e+16 | 4.29e+16 | ESI positive response factor (0.0122 µM): 4.3e+16; ESI positive response factor (0.0244 µM): 3.86e+16 |
| Nc1nc(N)nc(N)n1 [Melamine] | – | – | – | – | 1.82e+16 | 1.7e+16 | 2.07e+16 | ESI positive response factor (0.0244 µM): 1.84e+16 |
| Cc1cccc(C)c1N(Cn1cccn1)C(=O)CCl [Metazachlor] | – | – | – | – | 2.65e+17 | 2.62e+17 | 3.05e+17 | ESI positive response factor (0.0122 µM): 3.21e+17; ESI positive response factor (0.0244 µM): 3.32e+17 |
| CC1(C)CCC(Cc2ccc(Cl)cc2)C1(O)Cn1cncn1 (configuration not stated) [Metconazol] | – | – | – | – | – | – | 3.16e+17 | ESI positive response factor (0.0122 µM): 3.22e+17; ESI positive response factor (0.0244 µM): 3.52e+17 |
| CN(C)C(=N)N=C(N)N [Metformin] | – | – | – | – | 1.01e+17 | 9.59e+16 | 9.71e+16 | ESI positive response factor (0.0244 µM): 4.62e+16 |
| C[N+]1(C)[C@H]2CC(OC(=O)C(CO)c3ccccc3)C[C@H]1[C@H]1O[C@H]12 (some centres not stated) [Methyl scopolamine] | 8.31e+17 | 7.49e+17 | – | – | – | – | – | ESI positive response factor (0.0175 µM): 6.75e+17 |
| Cn1sccc1=O [Methylisothiazolinone] | – | – | – | – | – | – | – | ESI positive response factor (0.61 µM): 9.58e+14; ESI positive response factor (1.22 µM): 1.18e+15 |
| CON(C)C(=O)Nc1ccc(Br)cc1 [Metobromuron] | – | – | – | – | – | 1.95e+17 | 2.07e+17 | ESI positive response factor (0.0122 µM): 2.18e+17; ESI positive response factor (0.0244 µM): 2.29e+17 |
| CCc1cccc(C)c1N(C(=O)CCl)C(C)COC (configuration not stated) [Metolachlor] | – | – | – | – | – | – | 5.13e+17 | ESI positive response factor (0.0122 µM): 4.41e+17; ESI positive response factor (0.0244 µM): 5.34e+17 |
| CSc1nnc(C(C)(C)C)c(=O)n1N [Metribuzin] | – | – | – | – | 1.52e+17 | 1.54e+17 | 1.69e+17 | ESI positive response factor (0.0122 µM): 2.83e+17; ESI positive response factor (0.0244 µM): 2.15e+17 |
| CCSC(=O)N1CCCCCC1 [Molinate] | – | – | – | – | 2e+16 | 1.94e+16 | 1.56e+16 | ESI positive response factor (0.61 µM): 1.59e+16; ESI positive response factor (1.22 µM): 1.93e+16 |
| CN(C)C(=O)Nc1ccc(Cl)cc1 [Monuron] | – | – | – | – | 3.26e+16 | 3.07e+16 | 3.31e+16 | ESI positive response factor (0.0122 µM): 2.43e+16; ESI positive response factor (0.0244 µM): 2.85e+16 |
| O=C1NCCCN1 [N,N?-Trimethyleneurea] | – | – | – | – | – | – | 3.96e+16 | ESI positive response factor (0.0122 µM): 2.53e+16; ESI positive response factor (0.0244 µM): 3.89e+16 |
| CNC(=O)CSP(=O)(OC)OC [Omethoate] | 3.37e+16 | 3.65e+16 | 3.18e+16 | 3.93e+16 | – | – | – | ESI positive response factor (0.0175 µM): 2.18e+16 |
| COCC(=O)N(c1c(C)cccc1C)N1CCOC1=O [Oxadixyl] | 1.43e+17 | 1.57e+17 | 1.23e+17 | 1.48e+17 | – | – | – | ESI positive response factor (0.0175 µM): 1.33e+17 |
